For 23 compounds, IC50 results are on record in patent US9586951B2 (FUJIFILM Corporation, priority 2013, dated 2017).

Bounds are passed on as bounds.

In the experiment the target is T1, ATM (Homo sapiens, UniProt Q13315).
T1 construct: detecting phosphorylation of Chk2 in a human non-small cell lung cancer cell line NCI-H460 (ATCC company); host or cells: NCI-H460 human non-small cell lung cancer cells
T1 sequence (Q13315 whole entry): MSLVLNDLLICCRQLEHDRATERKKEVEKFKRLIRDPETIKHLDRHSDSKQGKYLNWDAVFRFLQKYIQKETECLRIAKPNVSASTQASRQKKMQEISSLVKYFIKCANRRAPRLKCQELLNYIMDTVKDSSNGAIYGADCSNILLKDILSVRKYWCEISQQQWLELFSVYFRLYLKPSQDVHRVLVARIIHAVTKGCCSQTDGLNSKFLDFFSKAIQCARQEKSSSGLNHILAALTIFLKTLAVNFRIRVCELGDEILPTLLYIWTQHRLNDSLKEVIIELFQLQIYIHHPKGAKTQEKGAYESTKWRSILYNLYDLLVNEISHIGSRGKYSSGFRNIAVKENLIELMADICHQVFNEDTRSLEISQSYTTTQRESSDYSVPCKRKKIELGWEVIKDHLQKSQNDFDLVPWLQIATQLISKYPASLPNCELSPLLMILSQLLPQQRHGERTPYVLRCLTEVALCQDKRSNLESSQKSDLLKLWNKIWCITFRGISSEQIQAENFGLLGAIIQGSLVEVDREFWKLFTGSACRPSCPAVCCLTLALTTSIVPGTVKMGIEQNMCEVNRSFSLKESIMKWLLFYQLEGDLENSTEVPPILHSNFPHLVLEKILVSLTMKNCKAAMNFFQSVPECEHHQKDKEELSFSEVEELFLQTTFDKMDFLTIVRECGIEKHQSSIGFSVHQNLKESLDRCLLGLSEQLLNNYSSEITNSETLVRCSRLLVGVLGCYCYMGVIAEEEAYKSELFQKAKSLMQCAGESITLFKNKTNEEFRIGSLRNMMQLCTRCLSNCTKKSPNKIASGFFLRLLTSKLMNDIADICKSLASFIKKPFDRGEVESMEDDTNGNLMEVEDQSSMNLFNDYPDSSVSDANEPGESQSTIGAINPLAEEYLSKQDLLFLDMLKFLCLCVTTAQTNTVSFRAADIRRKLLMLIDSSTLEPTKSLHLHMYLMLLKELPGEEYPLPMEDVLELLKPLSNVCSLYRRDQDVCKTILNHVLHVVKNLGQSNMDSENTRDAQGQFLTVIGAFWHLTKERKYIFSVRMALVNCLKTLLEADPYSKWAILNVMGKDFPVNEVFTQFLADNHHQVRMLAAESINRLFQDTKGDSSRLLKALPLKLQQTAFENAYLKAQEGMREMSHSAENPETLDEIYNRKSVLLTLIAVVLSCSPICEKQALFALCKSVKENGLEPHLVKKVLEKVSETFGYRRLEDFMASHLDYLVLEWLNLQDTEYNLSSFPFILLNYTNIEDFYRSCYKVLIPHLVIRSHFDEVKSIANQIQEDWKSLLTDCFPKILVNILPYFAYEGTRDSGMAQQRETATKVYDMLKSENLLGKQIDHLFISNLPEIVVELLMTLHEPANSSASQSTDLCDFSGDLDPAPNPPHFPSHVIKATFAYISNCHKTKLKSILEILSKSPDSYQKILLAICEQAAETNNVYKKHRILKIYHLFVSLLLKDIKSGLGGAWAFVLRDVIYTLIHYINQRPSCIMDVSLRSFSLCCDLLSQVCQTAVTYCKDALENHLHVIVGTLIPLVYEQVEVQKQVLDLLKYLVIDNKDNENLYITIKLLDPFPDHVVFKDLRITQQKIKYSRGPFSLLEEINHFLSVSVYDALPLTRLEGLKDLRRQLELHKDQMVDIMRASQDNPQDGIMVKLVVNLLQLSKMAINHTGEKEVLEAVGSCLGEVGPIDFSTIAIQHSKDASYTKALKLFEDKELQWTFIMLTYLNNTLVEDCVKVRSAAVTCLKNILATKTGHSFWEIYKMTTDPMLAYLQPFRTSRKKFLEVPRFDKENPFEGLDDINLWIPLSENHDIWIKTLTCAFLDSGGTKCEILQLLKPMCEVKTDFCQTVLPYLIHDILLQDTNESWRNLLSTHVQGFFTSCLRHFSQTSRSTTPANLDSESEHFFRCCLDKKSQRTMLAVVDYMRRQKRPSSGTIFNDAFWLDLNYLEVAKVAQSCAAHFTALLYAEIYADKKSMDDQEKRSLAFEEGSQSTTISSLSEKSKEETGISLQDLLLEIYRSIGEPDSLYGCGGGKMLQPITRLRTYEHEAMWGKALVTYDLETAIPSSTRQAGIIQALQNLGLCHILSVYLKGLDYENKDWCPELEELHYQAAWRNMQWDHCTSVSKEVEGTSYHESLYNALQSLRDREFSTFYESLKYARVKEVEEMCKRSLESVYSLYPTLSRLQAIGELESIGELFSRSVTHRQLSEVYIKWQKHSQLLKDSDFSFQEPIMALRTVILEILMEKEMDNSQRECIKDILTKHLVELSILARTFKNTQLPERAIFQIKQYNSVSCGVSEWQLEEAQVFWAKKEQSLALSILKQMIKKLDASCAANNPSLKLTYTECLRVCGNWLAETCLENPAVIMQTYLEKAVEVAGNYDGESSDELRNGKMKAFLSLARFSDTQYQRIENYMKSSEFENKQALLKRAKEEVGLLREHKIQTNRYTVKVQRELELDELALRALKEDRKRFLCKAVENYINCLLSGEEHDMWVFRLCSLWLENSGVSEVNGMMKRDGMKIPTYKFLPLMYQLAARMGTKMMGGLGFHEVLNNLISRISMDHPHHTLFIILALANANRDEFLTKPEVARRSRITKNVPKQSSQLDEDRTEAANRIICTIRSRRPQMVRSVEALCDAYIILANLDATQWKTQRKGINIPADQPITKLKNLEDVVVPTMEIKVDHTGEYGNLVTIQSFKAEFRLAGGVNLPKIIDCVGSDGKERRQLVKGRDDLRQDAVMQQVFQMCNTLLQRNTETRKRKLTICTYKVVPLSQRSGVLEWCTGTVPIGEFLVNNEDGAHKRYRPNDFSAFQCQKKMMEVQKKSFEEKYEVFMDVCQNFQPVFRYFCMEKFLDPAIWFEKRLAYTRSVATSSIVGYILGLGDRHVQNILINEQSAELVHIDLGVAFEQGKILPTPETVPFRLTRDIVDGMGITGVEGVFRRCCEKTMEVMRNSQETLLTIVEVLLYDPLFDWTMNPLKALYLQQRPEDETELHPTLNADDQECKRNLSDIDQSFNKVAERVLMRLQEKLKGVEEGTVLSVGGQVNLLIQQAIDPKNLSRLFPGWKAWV
In words: ATM inhibition test (phosphorylation of Chk2 generated by ionizing radiation, AlphaScreen SureFire). The experiment is classed as cell-based. To be noted: phosphorylated Chk2 in NCI-H460 cells, ionizing radiation 8Gy, 1 hour after test compound treatment; read-out: ATM inhibitory activity. In outline:
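Phosphorylated Chk2 read by AlphaScreen SureFire in human non-small cell lung cancer NCI-H460 cells, 1 hour after 8Gy ionizing radiation at 37° C. Compound added 1 hour before irradiation. Percent inhibition normalised between irradiated and non-irradiated drug-untreated signals.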
On to `O=c1cc(N2CCOCC2)cc(-c2cccc3c2Oc2ccc(NC4CCN(CCc5ccccc5Cl)CC4)cc2C3)[nH]1` [Example 2-30-9, 6-(7-((1-(2-Chlorophenethyl)piperidin-4-yl)amino)-9H-xanthen-4-yl)-4-morpholino pyridin-2(1H)-one], for which the IC50 was 100 to 500 nM. For `Cc1nccnc1CNc1ccc2c(c1)Sc1cccc(-c3cc(N4CCOCC4)cc(=O)[nH]3)c1S2` [Example 1-12-61, 6-(7-(((3-Methylpyrazin-2-yl)methyl)amino)thianthren-1-yl)-4-morpholino pyridin-2 (1H)-one], the IC50 lay within 100 to 500 nM.

Turning to `COc1ccc(CCN2CCC(Nc3ccc4c(c3)Sc3cccc(-c5cc(N6CCOCC6)cc(=O)[nH]5)c3S4)CC2)cc1` [Example 1-27, 6-(7-((1-(4-methoxyphenethyl)piperidin-4-yl)amino)thianthren-1-yl)-4-morpholinopyridin-2(1H)-one], the IC50 lay within 100 to 500 nM. Turning to `O=c1cc(N2CCOCC2)cc(-c2cccc3c2Sc2ccc(NCCN4CCCOCC4)cc2S3)[nH]1` [Example 1-10-6, 6-(7-((2-(1,4-Oxazepan-4-yl)ethyl)amino)thianthren-1-yl)-4-morpholinopyridin-2(1H)-one], the IC50 is 100 to 500 nM. In the case of `COc1cc(OC)nc(CN2CCC(Nc3ccc4c(c3)Cc3cccc(-c5cc(N6CCOCC6)cc(=O)[nH]5)c3O4)CC2)n1` [Example 2-28-20, 6-(7-((1-((4,6-Dimethoxypyrimidin-2-yl)methyl)piperidin-4-yl)amino)-9H-xanthen-4-yl)-4-morpholino pyridin-2(1H)-one], the IC50 was in the range of 100 to 500 nM. `O=c1cc(N2CCOCC2)cc(-c2cccc3c2Oc2ccc(NCc4ccnc(N5CCOCC5)n4)cc2C3)[nH]1` [Example 2-14-69, 4-Morpholino-6-(7-(((2-morpholinopyrimidin-4-yl)methyl)amino)-9H-xanthen-4-yl)pyridin-2(1H)-one]: the IC50 lay within 100 to 500 nM. On to `Cc1cnc(CNc2ccc3c(c2)Cc2cccc(-c4cc(N5CCOCC5)cc(=O)[nH]4)c2O3)cn1` [Example 2-14-76, 6-(7-(((5-Methylpyrazin-2-yl)methyl)amino)-9H-xanthen-4-yl)-4-morpholino pyridin-2(1H)-one], for which the IC50 lay within 100 to 500 nM. Regarding `Cc1ccc(C(CCN2CCN(C)CC2)Nc2ccc3c(c2)Sc2cccc(-c4cc(N5CCOCC5)cc(=O)[nH]4)c2S3)nc1` (single isomer, unassigned) [Example 10-3-1, 6-(7-((3-(4-Methylpiperazin-1-yl)-1-(5-methylpyridin-2-yl)propyl)amino)thianthren-1-yl)-4-morpholino pyridin-2 (1H)-one], the IC50 was less than 100 nM. For the compound `CCN(C)CCC(Nc1ccc2c(c1)Sc1cccc(-c3cc(N4CCOCC4)cc(=O)[nH]3)c1S2)c1ccc(C)cn1` (single isomer, unassigned) [Example 1-51-9, 6-(7-((3-(Ethyl(methyl)amino)-1-(5-methylpyridin-2-yl)propyl)amino)thianthren-1-yl)-4-morpholino pyridin-2 (1H)-one], the IC50 was less than 100 nM. Next, `O=c1cc(N2CCOCC2)cc(-c2cccc3c2Oc2ccc(NCc4cncc(-c5cn[nH]c5)c4)cc2C3)[nH]1` [Example 2-8-2, 6-(7-(((5-(1H-pyrazol-4-yl)pyridin-3-yl)methyl)amino)-9H-xanthen-4-yl)-4-morpholinopyridin-2(1H)-one]: 100 to 500 nM. Consider `COc1cncc(C(C)Nc2ccc3c(c2)Sc2cccc(-c4cc(N5CCOCC5)cc(=O)[nH]4)c2O3)c1` (centres unmarked) [Example 4-4-1, 6-(8-((1-(5-Methoxypyridin-3-yl)ethyl)amino)phenoxathiin-4-yl)-4-morpholinopyridin-2(1H)-one], for which the IC50 lay within 100 to 500 nM. In the case of `CC(C)Oc1ccc(CCN2CCC(Nc3ccc4c(c3)Cc3cccc(-c5cc(N6CCOCC6)cc(=O)[nH]5)c3O4)CC2)cc1` [Example 2-30-18, 6-(7-((1-(4-Isopropoxyphenethyl)piperidin-4-yl)amino)-9H-xanthen-4-yl)-4-morpholino pyridin-2(1H)-one], the IC50 lay in the range of 100 to 500 nM.

Take `CCOc1ccc(CNc2ccc3c(c2)Cc2cccc(-c4cc(N5CCOCC5)cc(=O)[nH]4)c2O3)cn1` [Example 2-2-23, 6-(7-(((6-Ethoxypyridin-3-yl)methyl)amino)-9H-xanthen-4-yl)-4-morpholino pyridin-2(1H)-one]: the IC50 was 100 to 500 nM. As for `O=c1cc(N2CCOCC2)cc(-c2cccc3c2Oc2ccc(NC4CCN(c5cccnc5)CC4)cc2C3)[nH]1` [Example 2-2-28, 4-Morpholino-6-(7-((l-(pyridin-3-yl)piperidin-4-yl)amino)-9H-xanthen-4-yl) pyridin-2(1H)-one], the IC50 was 100 to 500 nM. As to `CC(Nc1ccc2c(c1)Cc1cccc(-c3cc(N4CCOCC4)cc(=O)[nH]3)c1O2)c1cncc(Cl)c1` (centres unmarked) [Example 2-14-27, 6-(7-((1-(5-Chloropyridin-3-yl)ethyl)amino)-9H-xanthen-4-yl)-4-morpholino pyridin-2(1H)-one], the IC50 lay in the range of 100 to 500 nM. Consider `COc1ccc(CCN2CCC(Nc3ccc4c(c3)Cc3ccc(F)c(-c5cc(N6CCOCC6)cc(=O)[nH]5)c3O4)CC2)cc1` [Example 2-47, 6-(3-Fluoro-7-((1-(4-methoxyphenethyl)piperidin-4-yl)amino)-9H-xanthen-4-yl)-4-morpholinopyridin-2(1H)-one], for which the IC50 lay within 100 to 500 nM. `CN(C)CC(CN1CCOCC1)Nc1ccc2c(c1)Sc1cccc(-c3cc(N4CCOCC4)cc(=O)[nH]3)c1S2` (centres unmarked) [Example 9-3, 6-(7-((1-(Dimethylamino)-3-morpholinopropan-2-yl)amino)thianthren-1-yl)-4-morpholinopyridin-2(1H)-one]: the IC50 was 500 to 2000 nM. Take `CC(CN1CCN(c2ccncc2)CC1)Nc1ccc2c(c1)Sc1cccc(-c3cc(N4CCOCC4)cc(=O)[nH]3)c1S2` (centres unmarked) [Example 1-13-16, 4-Morpholino-6-(7-((1-(4-(pyridin-4-yl)piperazin-1-yl)propan-2-yl)amino)thianthren-1-yl)pyridin-2 (1H)-one]: the IC50 lay within 100 to 500 nM.

Turning to `O=c1cc(N2CCOCC2)cc(-c2cccc3c2Oc2ccc(NCc4ccc(OC5CCOCC5)nc4)cc2C3)[nH]1` [Example 2-2-4, 4-Morpholino-6-(7-(((6-((tetrahydro-2H-pyran-4-yl)oxy)pyridin-3-yl)methyl)amino)-9H-xanthen-4-yl)pyridin-2 (1H)-one], the IC50 was in the range of 500 to 2000 nM.

With `CC(CN1CCN(C)CC1)Nc1ccc2c(c1)Sc1cccc(-c3cc(=O)cc(N4CCOCC4)o3)c1S2` (centres unmarked) [Example 11-4, 2-(7-((1-(4-Methylpiperazin-1-yl)propan-2-yl)amino)thianthren-1-yl)-6-morpholino-4H-pyran-4-one], the IC50 was 100 to 500 nM. For `CC(CCN1CCCC1)Nc1ccc2c(c1)Sc1cccc(-c3cc(N4CCOCC4)cc(=O)[nH]3)c1S2` (centres unmarked) [Example 1-42-4, 4-Morpholino-6-(7-((4-(pyrrolidin-1-yl)butan-2-yl)amino)thianthren-1-yl) pyridin-2(1H)-one], the IC50 was 100 to 500 nM. As to `O=c1cc(N2CCOCC2)nc(-c2cccc3c2Oc2ccc(NCc4cc(Cl)ccn4)cc2C3)[nH]1` [Example 2-52-3, 2-(7-(((4-Chloropyridin-2-yl)methyl)amino)-9H-xanthen-4-yl)-6-morpholinopyrimidine-4(3H)-one], the IC50 was 100 to 500 nM. To `Cc1ccc(C(Nc2ccc3c(c2)Sc2cccc(-c4cc(N5CCOCC5)cc(=O)[nH]4)c2S3)[C@H]2CCN(C)C2)nc1` (single isomer, unassigned) [Example 1-56-15] belongs less than 100 nM.
